Test results taken from patent publication US9592214B2, “Compounds for the treatment of autism in a baby child” (INSERM (INSTITUT NATIONAL DE LA SANTE ET DE LA RECHERCHE …, priority 2010, dated 2017).
Entries after “also recorded” stand apart in the source; their conditions may differ.

Columns and labels:
hippocampal slices = experiment: Effects of isoguvacine on spike frequency, extracellular field potential recordings in hippocampal slices; type: cell-based, rat; conditions: for Effects of isoguvacine on frequency of spikes in extracellular recordings (% of control), mean ± S.E.: VPA rats with maternal bumetanide pretreatment, P15
Description: Experiments were performed on fetuses and neonatal rat pups. We removed E20 rats from deeply anesthetized dams [subcutaneous injection of a mixture of xylazine (Rompun 2%; used at 0.05%) and ketamine (Imalgene 1000 used at 50 g/l)]. Hippocampal slices ([…] thick) were prepared using a Microm tissue slicer (International GmbH, Germany) as described previously (Tyzio et al. 2006 Science 314, 1788; Tyzio et al, 2008, Eur J. Neurosci. 27(10):2515-28). Slices were kept in oxygenated (95% O2/5% CO2) artificial cerebrospinal fluid (ACSF) of the following composition (in mM): NaCl 126, KCl 3.5, CaCl2 2.0, MgCl2 1.3, NaHCO3 25, NaH2PO4 1.2 and glucose 11 (pH 7.4) at room temperature (20-22° C.) at least 1 hour before use.
Extracellular field potentials and multi-unit activity (MUA) recordings Recording were made in the hippocampal slices using tungsten wire electrodes (diameter: 50 μm, California Fine Wire, Grover Beach, Calif.) and a low-noise multichannel DAM-8A amplifiers (WPI, GB; […]; gain: ×1000). The signals were digitized using an analogue-to-digital converter (Digidata 1440A, Axon Instruments, USA). pCLAMP 10.1, Clampfit 10.1 (Axon Instruments, USA), MiniAnalysis 6.03 (Synaptosoft, Decatur, Calif.) and Origin 7.5 (Microcal Software, USA) programs were used for the acquisition and analysis of the synaptic activities. Sampling interval per signal was 100 microseconds (10 kHz).
Bumetanide (10 μM), Oxytocin (1 μM) and Isoguvacine (2 μM) were directly added to the perfusion solutions. Bumetanide pretreatment (2-2.5 mg/kg) was given to the dams in drinking water. All drugs used were purchased from Sigma. SSR126768A (Sanofi-Synthelabo) pretreatment (1 mg/kg) was given to the dams in drinking water.

[1] = test system: hippocampal CA3 pyramidal cells; experiment: Acute application of bumetanide to hippocampal slices: DFGABA from cell-attached single GABAA channel recordings; type: cell-based, rat; conditions: acute bumetanide 10 μM
Description: Time-mated female Wistar rats at gestational day E7-8 were housed under standard laboratory conditions. […] The offspring were used for experiments on embryonic day 20 (E20) and postnatal (P) days 0, 2, 4, 7, 15 and 30 (after being weaned at P23). Experiments were carried out on offspring of either sex.
Hippocampal slices (300-500 nm thick) were prepared using a Microm tissue slicer (International GmbH, Germany) as described previously (Tyzio et al. 2006 Science 314, 1788; Tyzio et al, 2008, Eur J. Neurosci. 27(10):2515-28). Slices were kept in oxygenated (95% O2/5% CO2) artificial cerebrospinal fluid (ACSF) of the following composition (in mM): NaCl 126, KCl 3.5, CaCl2 2.0, MgCl2 1.3, NaHCO3 25, NaH2PO4 1.2 and glucose 11 (pH 7.4) at room temperature (20-22° C.) at least 1 hour before use.
For recordings, slices were placed into a conventional fully submerged chamber superfused with ACSF at a rate of 2-3 ml/min at room temperature. Patch clamp recordings from visually identified CA3 pyramidal cells in cell-attached configuration were performed using EPC-10 amplifier (HEKA Elektronik Dr. Schulze GmbH, Lambrecht/Pfalz, Germany). Patch pipette solution for recordings of single GABAA channels contained (in mM): NaCl 120, KCl 5, TEA-Cl 20, 4-aminopyridine 5, CaCl2 0.1, MgCl2 10, glucose 10, Hepes-NaOH 10 buffered to pH 7.2-7.3 and GABA 2 μM. Analysis of currents through single channels and current-voltage relationships were performed using Clampfit 9.2 (Axon Instruments, Union City, Calif.). Recordings were digitized (10 kHz) online with Digidata-1200 interface card (Axon Instruments, Union City, Calif.) and analyzed offline with Axon package, MiniAnalysis (S (Synaptsoft, Decatur, Ga.), and Origin (Microcal Software, Northampton, Mass.).
Bumetanide (10 μM), Oxytocin (1 μM) and Isoguvacine (2 μM) were directly added to the perfusion solutions. […] All drugs used were purchased from Sigma.

[2] = test system: hippocampal CA3 pyramidal neurons; experiment: Whole-cell voltage clamp recordings of sEPSCs in offspring after maternal pretreatment; type: in vivo, rat; conditions: P15 VPA rats, maternal bumetanide pretreatment; −70 mV; result in words
Description: Standard whole-cell recordings were performed in coronal neocortical rat or mouse brain slices at room temperature (20-22° C.) from the soma of hippocampal CA3 neurons using an EPC-10 (HEKA Elektronik, Germany) amplifier and filtered at 3-10 kHz. The internal solution contained (in mM): 130 K-gluconate, 10 Na-gluconate, 4 NaCl, 4 MgATP, 4 phosphocreatine, 10 HEPES, and 0.3 GTP (pH 7.3 with KOH). Biocytin (final concentration 0.3-0.5%) was added to the pipette solution to label the neurons from which recordings were obtained. Neurons were visualized by using infrared DIC video microscopy. Spontaneous postsynaptic currents were recorded for […] at the reversal potentials for […] currents (−70 mV). It should be specifically noted that all recordings were made in normal ACSF (1.3 mM MgCl2). Stored data were analyzed using the Mini Analysis 6.0.3 (Synaptosoft Inc., Chapell Hill, N.C.) and Origin (MicroCal, Northampton, Mass.) software. To minimize potential sampling bias, the pups from at least three deliveries for each condition were studied. Data are expressed as mean±S.E.M.
Bumetanide (10 μM), Oxytocin (1 μM) and Isoguvacine (2 μM) were directly added to the perfusion solutions. Bumetanide pretreatment (2-2.5 mg/kg) was given to the dams in drinking water. All drugs used were purchased from Sigma. […]

CCCCNc1cc(C(=O)O)cc(S(N)(=O)=O)c1Oc1ccccc1 [bumetanide]
excitatory actions of the GABAAR agonist isoguvacine (hippocampal slices; P15 VPA offspring, maternal bumetanide pretreatment, result in words): suppressed the excitatory actions
Effects of isoguvacine on frequency of spikes in extracellular recordings (% of control), mean ± S.E. (hippocampal slices): 82.8±10.7 % of control
Effects of isoguvacine on frequency of spikes in extracellular recordings (% of control), mean ± S.E. (hippocampal slices; listed as BUM): 82.8 ± 10.7 (n = 9), P < 0.05 % of control
[Cl−]i ([1]; P0 VPA neurons, result in words): significantly decreased
DFGABA mV), mean± ([1]; P0 VPA rats): −2.4 ± 1.2 (n = 21) mV
DFGABA mV), mean± ([1]; P0 control rats): −5.3 ± 0.7 (n = 17) mV
sEPSCs frequency [2]: decreases; also recorded: significantly reduced
